According to ChEMBL document CHEMBL1201862, “PubChem BioAssay data set” (2004):
Activity calls are given as the source filed them.

What was measured:
[1] = target: T1, Short transient receptor potential channel 4 (Mus musculus, UniProt Q9QUQ5); assay: calcium entry via TRPC4 opening agents – cell-based, HEK293 TRPC4/mu-opioid, Fluo-4 calcium, dose response (AID 434937); assay type: functional
T1 sequence (Q9QUQ5 whole entry): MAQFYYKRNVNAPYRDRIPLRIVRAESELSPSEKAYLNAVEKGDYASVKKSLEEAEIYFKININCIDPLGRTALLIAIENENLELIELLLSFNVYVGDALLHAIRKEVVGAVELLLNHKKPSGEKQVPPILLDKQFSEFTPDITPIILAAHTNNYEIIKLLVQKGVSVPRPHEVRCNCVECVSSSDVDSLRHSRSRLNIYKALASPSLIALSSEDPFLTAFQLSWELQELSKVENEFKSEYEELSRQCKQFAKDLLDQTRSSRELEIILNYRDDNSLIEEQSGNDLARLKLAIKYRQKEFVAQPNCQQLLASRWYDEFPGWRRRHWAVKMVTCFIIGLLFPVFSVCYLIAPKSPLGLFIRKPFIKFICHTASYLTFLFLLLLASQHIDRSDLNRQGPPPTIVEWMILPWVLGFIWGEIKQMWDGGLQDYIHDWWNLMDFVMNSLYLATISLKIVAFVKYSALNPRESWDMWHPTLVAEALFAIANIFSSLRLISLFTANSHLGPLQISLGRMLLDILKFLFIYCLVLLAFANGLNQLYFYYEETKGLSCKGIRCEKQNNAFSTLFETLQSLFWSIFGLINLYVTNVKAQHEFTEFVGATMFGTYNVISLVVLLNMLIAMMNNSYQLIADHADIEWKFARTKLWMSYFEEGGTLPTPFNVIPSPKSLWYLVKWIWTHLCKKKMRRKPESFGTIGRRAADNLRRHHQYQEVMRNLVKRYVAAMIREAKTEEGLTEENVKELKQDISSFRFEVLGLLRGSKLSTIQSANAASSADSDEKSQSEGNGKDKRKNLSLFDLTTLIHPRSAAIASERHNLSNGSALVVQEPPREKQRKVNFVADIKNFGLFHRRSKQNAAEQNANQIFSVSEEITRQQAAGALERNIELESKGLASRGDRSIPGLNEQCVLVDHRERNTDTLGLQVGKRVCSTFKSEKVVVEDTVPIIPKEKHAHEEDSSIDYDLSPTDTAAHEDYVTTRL

Genome polyprotein = Genome polyprotein (dengue virus type 2, UniProt P29990); assay: flavivirus cap methylation enzyme inhibition – biochemical, confirmation dose response, primary screen (AID 588689); assay type: functional
Cytochrome P450 2C9 = Cytochrome P450 2C9 (Homo sapiens, UniProt P11712)
Cytochrome P450 1A2 = target: T2, Cytochrome P450 1A2 (Homo sapiens, UniProt P05177);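 further: PubChem cytochrome P450 panel assay, CYP1A2 panel member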
T2 sequence (P05177 whole entry): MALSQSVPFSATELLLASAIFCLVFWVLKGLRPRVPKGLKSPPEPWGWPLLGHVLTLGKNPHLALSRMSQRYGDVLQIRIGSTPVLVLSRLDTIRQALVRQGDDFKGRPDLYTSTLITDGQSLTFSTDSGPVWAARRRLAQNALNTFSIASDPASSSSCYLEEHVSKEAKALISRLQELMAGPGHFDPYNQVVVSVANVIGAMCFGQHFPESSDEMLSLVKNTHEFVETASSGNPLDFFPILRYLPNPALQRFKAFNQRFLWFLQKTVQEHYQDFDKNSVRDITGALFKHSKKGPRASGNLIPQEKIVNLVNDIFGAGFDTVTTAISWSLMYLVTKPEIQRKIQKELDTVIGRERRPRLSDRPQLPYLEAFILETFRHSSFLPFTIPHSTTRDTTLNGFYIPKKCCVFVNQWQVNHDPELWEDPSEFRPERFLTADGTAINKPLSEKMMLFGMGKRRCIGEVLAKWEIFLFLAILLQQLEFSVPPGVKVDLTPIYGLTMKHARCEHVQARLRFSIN

[2] = Luminescence Cell-Based Dose Confirmation HTS to Identify Activators of 5'UTR Stem-Loop Driven Alpha-Synuclein mRNA Translation in H4 Neuroglioblastoma Cells. [Related pubchem assays: 1829 (Project Summary), 1814 (Primary HTS)]; assay type: functional
[3] = Luminescence Cell-Based Dose Response HTS to Identify Activators of Luciferase Translation or Activity in H4 […] Cells. [Related pubchem assays: 1829 (Project Summary), 1814 (Primary HTS)]; assay type: functional
H4 = assay: Luminescence Cell-Based Dose Response HTS to Identify Activators of 5'UTR Stem-Loop Driven Prion Protein mRNA Translation in H4 Neuroglioblastoma Cells. [Related pubchem assays: 1829 (Project Summary), 1814 (Primary HTS)]; assay type: functional; settings: Homo sapiens
Cytochrome P450 3A4 [4] = target: T3, Cytochrome P450 3A4 (Homo sapiens, UniProt P08684)
Caspase-6 = target: T4, Caspase-6 (Homo sapiens, UniProt P55212); assay: inhibition of CASP6 peptide cleavage – biochemical, VEID-R110 fluorescence, cherry-pick, dose response (AID 720632)
T4 sequence (P55212 whole entry): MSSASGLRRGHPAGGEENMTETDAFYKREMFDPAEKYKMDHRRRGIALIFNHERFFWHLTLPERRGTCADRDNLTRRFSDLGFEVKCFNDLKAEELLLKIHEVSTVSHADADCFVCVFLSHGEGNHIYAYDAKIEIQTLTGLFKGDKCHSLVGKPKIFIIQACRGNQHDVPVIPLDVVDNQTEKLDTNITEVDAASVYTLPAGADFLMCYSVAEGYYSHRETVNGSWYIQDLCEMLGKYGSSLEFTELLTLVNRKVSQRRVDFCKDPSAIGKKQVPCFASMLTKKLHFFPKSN

Cytochrome P450 3A4 [5] = target: T3, Cytochrome P450 3A4; settings: Potency
[6] = target: T5, Zinc finger protein mex-5 (Caenorhabditis elegans, UniProt Q9XUB2); assay: potency of MEX-5 RNA-binding blockers – biochemical, C. elegans, fluorescence polarization, dose response (AID 1960)
T5 sequence (Q9XUB2 whole entry): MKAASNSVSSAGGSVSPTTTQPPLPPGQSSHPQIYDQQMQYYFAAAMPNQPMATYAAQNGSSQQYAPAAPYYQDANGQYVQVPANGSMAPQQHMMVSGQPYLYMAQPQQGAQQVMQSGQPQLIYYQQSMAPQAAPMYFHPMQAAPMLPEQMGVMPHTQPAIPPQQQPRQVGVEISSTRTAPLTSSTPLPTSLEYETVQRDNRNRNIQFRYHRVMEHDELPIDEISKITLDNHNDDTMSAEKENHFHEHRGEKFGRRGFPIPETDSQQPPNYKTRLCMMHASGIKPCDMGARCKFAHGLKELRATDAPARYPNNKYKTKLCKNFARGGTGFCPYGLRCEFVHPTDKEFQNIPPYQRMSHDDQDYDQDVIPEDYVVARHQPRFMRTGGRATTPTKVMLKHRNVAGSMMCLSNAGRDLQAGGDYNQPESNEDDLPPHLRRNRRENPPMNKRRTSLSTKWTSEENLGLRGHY

[7] = target: T6, RNA-binding protein pos-1 (Caenorhabditis elegans, UniProt G5EF15); assay: disruptors of C. elegans POS-1 RNA interaction – biochemical, fluorescence polarization, dose response (AID 1964);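 further: purified POS-1 fused to maltose binding protein made in E. coli; potency of compounds blocking POS-1 binding to fluorescent RNA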
T6 sequence (G5EF15 whole entry): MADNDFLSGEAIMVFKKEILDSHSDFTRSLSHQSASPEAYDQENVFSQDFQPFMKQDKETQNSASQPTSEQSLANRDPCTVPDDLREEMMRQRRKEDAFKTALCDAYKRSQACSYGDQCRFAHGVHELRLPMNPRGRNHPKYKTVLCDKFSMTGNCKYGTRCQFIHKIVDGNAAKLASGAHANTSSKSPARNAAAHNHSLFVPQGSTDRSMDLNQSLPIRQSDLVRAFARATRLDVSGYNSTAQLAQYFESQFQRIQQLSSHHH

Protein skinhead-1 = target: T7, Protein skinhead-1 (Caenorhabditis elegans, UniProt P34707); assay type: functional
T7 sequence (P34707 whole entry): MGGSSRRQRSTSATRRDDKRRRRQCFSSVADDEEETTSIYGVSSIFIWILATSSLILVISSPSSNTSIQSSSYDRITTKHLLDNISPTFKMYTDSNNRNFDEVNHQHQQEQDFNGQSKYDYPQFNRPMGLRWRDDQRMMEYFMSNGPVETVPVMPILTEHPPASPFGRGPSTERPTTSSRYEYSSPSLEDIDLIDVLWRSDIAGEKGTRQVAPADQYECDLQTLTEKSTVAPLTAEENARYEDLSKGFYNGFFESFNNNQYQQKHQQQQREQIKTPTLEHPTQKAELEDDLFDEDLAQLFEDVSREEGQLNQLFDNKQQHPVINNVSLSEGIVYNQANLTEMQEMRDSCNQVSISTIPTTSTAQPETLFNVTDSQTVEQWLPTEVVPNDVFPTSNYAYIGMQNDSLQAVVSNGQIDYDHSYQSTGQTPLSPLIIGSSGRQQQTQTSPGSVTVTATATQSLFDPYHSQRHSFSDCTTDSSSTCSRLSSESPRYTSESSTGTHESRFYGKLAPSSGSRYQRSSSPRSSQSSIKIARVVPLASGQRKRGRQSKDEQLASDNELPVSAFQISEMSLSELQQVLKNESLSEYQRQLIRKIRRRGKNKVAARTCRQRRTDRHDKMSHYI

Cytochrome P450 2C19 = Cytochrome P450 2C19 (Homo sapiens, UniProt P33261); assay: Cytochrome panel assay with activity outcomes. Panel member name: p450-cyp2c19 Compounds with AC50 equal or less than 10 uM are considered active; assay type: functional
Cytochrome P450 2C19, sequence (P33261 whole entry): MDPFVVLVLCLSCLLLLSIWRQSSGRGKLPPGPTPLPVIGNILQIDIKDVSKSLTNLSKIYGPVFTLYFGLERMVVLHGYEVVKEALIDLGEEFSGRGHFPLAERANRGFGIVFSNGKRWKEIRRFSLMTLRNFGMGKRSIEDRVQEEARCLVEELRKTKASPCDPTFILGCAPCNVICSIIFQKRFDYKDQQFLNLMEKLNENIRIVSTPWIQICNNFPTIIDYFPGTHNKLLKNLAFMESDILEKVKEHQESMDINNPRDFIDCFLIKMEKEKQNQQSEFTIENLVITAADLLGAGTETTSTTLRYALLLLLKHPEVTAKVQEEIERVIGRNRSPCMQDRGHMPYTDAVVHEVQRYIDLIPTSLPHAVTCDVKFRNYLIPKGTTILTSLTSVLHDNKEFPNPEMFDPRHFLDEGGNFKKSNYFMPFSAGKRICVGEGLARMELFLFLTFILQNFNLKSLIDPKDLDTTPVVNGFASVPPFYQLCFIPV

Genome polyprotein, sequence (P29990 2492-3391 limits assumed): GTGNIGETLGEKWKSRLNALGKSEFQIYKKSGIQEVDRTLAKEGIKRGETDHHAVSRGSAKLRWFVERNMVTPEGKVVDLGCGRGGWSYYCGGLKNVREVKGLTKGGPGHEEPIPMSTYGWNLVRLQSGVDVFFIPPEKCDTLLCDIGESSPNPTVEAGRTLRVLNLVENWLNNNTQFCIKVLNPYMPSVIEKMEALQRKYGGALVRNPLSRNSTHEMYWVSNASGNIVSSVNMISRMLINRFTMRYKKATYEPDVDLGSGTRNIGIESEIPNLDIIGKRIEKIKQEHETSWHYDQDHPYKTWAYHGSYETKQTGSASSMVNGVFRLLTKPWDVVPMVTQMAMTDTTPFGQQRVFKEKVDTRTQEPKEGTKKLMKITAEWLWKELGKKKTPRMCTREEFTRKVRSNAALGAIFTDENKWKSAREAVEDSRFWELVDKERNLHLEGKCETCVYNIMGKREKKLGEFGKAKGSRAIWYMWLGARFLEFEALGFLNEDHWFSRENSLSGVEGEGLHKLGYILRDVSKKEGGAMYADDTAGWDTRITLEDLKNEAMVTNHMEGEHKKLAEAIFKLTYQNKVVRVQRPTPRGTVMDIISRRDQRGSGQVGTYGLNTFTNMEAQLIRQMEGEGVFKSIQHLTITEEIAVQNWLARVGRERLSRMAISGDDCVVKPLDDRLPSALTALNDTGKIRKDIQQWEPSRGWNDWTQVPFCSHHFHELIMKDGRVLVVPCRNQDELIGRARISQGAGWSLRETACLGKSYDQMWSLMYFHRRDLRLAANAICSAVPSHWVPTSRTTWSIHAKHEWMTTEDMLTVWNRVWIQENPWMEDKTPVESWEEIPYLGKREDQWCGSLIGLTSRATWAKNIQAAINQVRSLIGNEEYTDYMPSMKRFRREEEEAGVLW
Cytochrome P450 2C9, sequence (P11712 whole entry): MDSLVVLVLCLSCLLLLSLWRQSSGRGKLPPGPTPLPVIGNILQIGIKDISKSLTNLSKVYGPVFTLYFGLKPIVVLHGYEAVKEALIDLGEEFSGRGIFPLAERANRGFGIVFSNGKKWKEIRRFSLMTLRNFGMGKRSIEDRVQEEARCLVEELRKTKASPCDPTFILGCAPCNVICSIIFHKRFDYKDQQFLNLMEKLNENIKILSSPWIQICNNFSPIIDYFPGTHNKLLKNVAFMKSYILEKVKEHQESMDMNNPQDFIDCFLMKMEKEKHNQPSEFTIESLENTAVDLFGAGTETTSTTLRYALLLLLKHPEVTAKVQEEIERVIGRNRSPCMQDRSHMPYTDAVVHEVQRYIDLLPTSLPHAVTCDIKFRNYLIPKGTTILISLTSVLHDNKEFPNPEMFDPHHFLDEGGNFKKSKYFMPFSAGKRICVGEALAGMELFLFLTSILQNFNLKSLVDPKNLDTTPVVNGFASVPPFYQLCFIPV
T3 sequence (P08684 whole entry): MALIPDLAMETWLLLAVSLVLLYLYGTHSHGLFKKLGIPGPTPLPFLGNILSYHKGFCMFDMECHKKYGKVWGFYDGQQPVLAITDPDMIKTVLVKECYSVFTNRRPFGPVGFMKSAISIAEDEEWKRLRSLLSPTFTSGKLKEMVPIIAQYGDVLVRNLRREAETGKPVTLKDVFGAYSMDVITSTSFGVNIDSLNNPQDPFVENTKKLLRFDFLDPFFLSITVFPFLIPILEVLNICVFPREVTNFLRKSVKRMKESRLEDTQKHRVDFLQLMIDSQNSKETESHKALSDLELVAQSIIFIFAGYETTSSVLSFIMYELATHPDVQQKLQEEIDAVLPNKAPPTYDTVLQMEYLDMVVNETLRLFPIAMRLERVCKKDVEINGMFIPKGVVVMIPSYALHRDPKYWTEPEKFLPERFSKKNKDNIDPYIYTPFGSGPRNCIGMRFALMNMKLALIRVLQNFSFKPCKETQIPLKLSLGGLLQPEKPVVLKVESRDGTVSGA

COc1cccc(C(=O)OC2CCCN(C)C2)c1 (stereo unspecified)
EC50 [1]: 0.376 µM (active)

CSc1nc(O)c(C(c2ccc(OC(C)C)cc2)c2c(O)nc(SC)nc2O)c(O)n1
IC50 (Genome polyprotein): 32.9 µM (active)

COc1ccc(Br)cc1/C=C/C(=O)Nc1c(C)cccc1C
AC50 (Cytochrome P450 2C9): inconclusive
AC50 (Cytochrome P450 1A2): 22.4 µM (inconclusive)

COCCn1nnnc1C(c1cc2ccc(OC)cc2nc1O)N1CCN(C2CCCCC2)CC1 (stereo unspecified)
EC50 [1]: 3.76 µM (active)

COc1cc(/C=C2/C(=N)N3C(c4ccccc4)=CSC3=NC2=O)ccc1OCC(=O)O
IC50 (Genome polyprotein): > 100 µM (active)
EC50 [2]: 19.6 µM (active)
EC50 [3]: 12.7 µM (active)
EC50 (H4): > 120 µM (not active)

CN(C)C(CNC(=O)/C=C/c1cccc(Cl)c1)c1ccccc1 (stereo unspecified)
EC50 [1]: 0.133 µM (active)

CC(C)(C)C(=O)NNC(=O)CCCOc1ccc(Cl)cc1Cl
AC50 (Cytochrome P450 2C9): inconclusive
AC50 (Cytochrome P450 1A2): 25.1 µM (inconclusive)

Cc1csc2c(N3CCN(C(=O)Nc4ccccc4)CC3)ncnc12
EC50 [1]: 1.68 µM (active)

CCN(CC)CCN1C(=O)C(O)=C(C(=O)c2ccc(OC)cc2)C1c1cccs1 (stereo unspecified)
AC50 (Cytochrome P450 2C9): inconclusive
AC50 (Cytochrome P450 3A4 [4]): 17.8 µM (inconclusive)

CN(C)c1ccc2c(c1)[C@@H]1C[C@@H](CC(=O)N3CCOCC3)O[C@@H](CO)[C@@H]1O2
AC50 (Caspase-6): 42.4 µM (active)

Cc1ccc(NC(=S)NC2CC3CCC(C2)N3Cc2ccco2)c(C)c1 (stereo unspecified)
EC50 [1]: 5.96 µM (active)

CC1=NN(c2ccc(Br)cc2)C(=O)/C1=C/c1ccc(-c2ccccc2C(=O)O)o1
IC50 (Genome polyprotein): 30 µM (active)

COC(=O)CNC(=O)[C@@]1(C)C=C[C@@H](Cc2ccccc2)N1C(C)=O
AC50 (Cytochrome P450 3A4 [5]): 20 µM (inconclusive)

c1ccc(-c2ccc(CN3C[C@@H]4C(c5ccccc5)C5(c6cccnc6)CC4(C5)[C@H]3c3ccccc3)cc2)cc1 (stereo partly specified)
AC50 (Cytochrome P450 3A4 [5]): 15.8 µM (inconclusive)

CC(=O)N(C)c1ccc(NC(=O)Cc2cccs2)cc1
AC50 (Caspase-6): 31.8 µM (active)

COc1ccc(/C=C(\C#N)C(=O)NCC2CCCO2)cc1OC (stereo unspecified)
EC50 [6]: > 300 µM (not active)
AC50 (Cytochrome P450 2C9): inconclusive
EC50 [7]: > 300 µM (not active)
IC50 (Protein skinhead-1): > 100 µM (inactive)
AC50 (Cytochrome P450 1A2): 22.4 µM (inconclusive)

O=Nc1ccc(Nc2ccccc2)cc1
AC50 (Cytochrome P450 3A4 [5]): 20 µM (inconclusive)

CCCCN(CC)CCCNC(=O)c1csc2c1CCCCC2
EC50 [1]: 1.19 µM (active)

O=C1C=C2C=CC3C[C@@]2(O1)C1CCCCN31 (stereo partly specified)
AC50 (Cytochrome P450 3A4 [5]): 31.6 µM (inconclusive)

Cc1nc(NC2CCCCC2)c2nc(-c3ccccc3)n(CCCN(C)C)c2n1
AC50 (Cytochrome P450 3A4 [5]): 20 µM (inconclusive)

CCOc1cc(OCC)c(C(C)=O)cc1OCC
AC50 (Cytochrome P450 3A4 [5]): 15.8 µM (inconclusive)

COC(=O)c1cccc(NC(=O)/C=C/c2cccc([N+](=O)[O-])c2)c1
AC50 (Cytochrome P450 2C19; read-out: AC50): 5.01 µM (inconclusive)
AC50 (Cytochrome P450 2C9): inconclusive
AC50 (Cytochrome P450 1A2): 2.24 µM (inconclusive)

COc1ccc(-c2ccccc2C2NC(C(=O)O)CCC2C)cc1 (stereo unspecified)
AC50 (Cytochrome P450 3A4 [5]): 5.01 µM (inconclusive)

O=C(O)C/C(=C\c1cc(Cl)c2c(c1)OCO2)c1nc2ccccc2s1
AC50 (Caspase-6): 7.56 µM (active)

Cc1c(N=C=O)cccc1N=C=O
AC50 (Cytochrome P450 3A4 [5]): 15.8 µM (inconclusive)

CNc1ccnc(-c2c(C)noc2C)n1
AC50 (Cytochrome P450 2C19): inconclusive
AC50 (Cytochrome P450 2C9): inconclusive
AC50 (Cytochrome P450 3A4 [4]): 39.8 µM (inconclusive)

O=C(O)CCC(=O)NCc1ccc2[nH]c3c(c2c1)CCCC3
EC50 [6]: 112 µM (active)
EC50 [7]: 82.1 µM (active)
AC50 (Caspase-6): 25.6 µM (active)

COC(=O)CC1[C@@]2(C)C[C@]34OC5(C)OC6(C7CC(=O)OC(c8ccoc8)[C@]7(C)CCC6(O5)[C@]13C)C(OC(C)=O)[C@]4(OC(C)=O)C2OC(C)=O (stereo partly specified)
AC50 (Cytochrome P450 3A4 [5]): 20 µM (inconclusive)

COc1cc2c(Cc3c4c5c(cc(OC)c(OC)c5c5c(OC)c(OC)ccc35)CCN4C)c3c4c(cc(OC)c(OC)c4c2cc1OC)CCN3C
AC50 (Cytochrome P450 3A4 [5]): 3.16 µM (inconclusive)

CSc1ccccc1NC(=O)CN(C)C(=O)COc1cccc2cccnc12
AC50 (Caspase-6): 29.5 µM (active)
